Assay results taken from US20240002441A1, “PEPTIDES AND USES THEREOF IN MODULATION OF AMYLOID-BETA PROTEIN DEGRADING PROTEASES” (priority 2020, published 2024).

How the values were obtained:
ACE2 = molecular target: T1, ACE2 (Homo sapiens, UniProt Q9BYF1); assay: Cleavage of synthetic Ang II to Ang 1-7 by ACE2, LCMS (Example 8); format: biochemical; details: rhACE2 0.1 ng/μL, peptide 1.7 μM, Ang II 0.02 μg/μL
T1 construct: purchased R & D systems 933-ZN-010
Procedure: Samples were analysed by LC-MS/MS using a quadrupole TOF mass spectrometer (MicroTOFq, Bruker Daltonics, Bremen, Germany) coupled online with a 1200 series nano-HPLC (Agilent technologies, Santa Clara, CA, USA). Samples were injected onto a zorbax 300SB reversed phase trap column with 95% solvent A (0.1% formic acid) at a flow rate of 10 μL/minute. The peptides were eluted over a 10-min gradient to 70% solvent B (80% acetonitrile, 0.1% formic acid) and separated on a 15-cm, 75-μmID zorbax 300SB nanocolumn. The eluent was nebulised and ionised using the Bruker nano-ESI source with a capillary voltage of 4500 V, dry gas at 180° C., flow rate of 5 L/minute and nebuliser gas pressure at 300 mbar. The MS acquisition was in selected ion monitoring mode after selected ion extraction of the MS spectra. Prior to analysis, the qTOF mass spectrometer was calibrated using a 1:50 dilution tuning mix (Agilent technologies, Santa Clara, CA, USA). Data from MS run were processed in Skyline version 19.1.0.193 (Uni. Of Washington, WA, USA) to perform ion chromatogram extractions and peak integrations.
rhACE2 (0.1 ng/μL) was incubated with SEQ ID NO:2 (1.7 μM) for 1 h at 37° C. Ang II (0.02 μg/μL) was then added to the reaction mixture. Aliquots of equal volume were collected at 0, 3, 6 and 24 h. […] The samples were analysed by LC-MS/MS using the method in Example 7.

5×FAD transgenic mice = assay: 5×FAD transgenic mouse model of Alzheimer's Disease (Example 15); format: in vivo
Procedure: All animal experiments were conducted in strict accordance with the Australian Code of Practice for the Care and Use of Animals for Scientific Purposes. Local approval was obtained from The University of Queensland's Animal Ethics Committee. All wild-type (WT) and transgenic mice (5×FAD tg) used were from the same litters to act as appropriate littermate controls. Thirty-four 2.5-3-month-old female and twenty-five 2.5-3-month-old male mice were used in this study. Animals were housed in groups of 3-5 animals per cage and maintained on a 12 hr light-dark cycle. Food and water were provided ad libitum.
All testing was conducted between 8 AM-6 PM, at approximately the same time each day. Prior to commencing any behavioural testing, mice were habituated to handling and handler smell to minimize handling-related stress. Each mouse was handled daily by the experimenter conducting the behavioural tasks for 30-s to 1-min each day. Handling involved picking up the mouse (by the base of the tail) from the home cage and placing in the palm of a gloved hand. This process was repeated daily, at approximately the same time each day, for a total of 8 days prior to testing. The bedding of the animals' home cage was not changed 2-days prior habituation to handling and for the duration of the behavioural tests. […]
The Active Place Avoidance (APA) task assessing longer-term spatial learning and memory was conducted on all mice as previously described (Willis E F, Bartlett P F, Vukovic J. Protocol for Short- and Longer-term Spatial Learning and Memory in Mice. Front Behav Neurosci. 2017; 11:197. https://doi:10.3389/fnbeh.2017.00197). The APA arena (Bio-Signal Group, NY, USA) consisted of a 77 cm diameter metal grid floor fenced by a 32 cm high Perspex clear circular boundary. The elevated arena sits directly below a digital video camera (Point Gray, USA) and in the middle of the room with visual cues placed on all 4 of the room walls. The visual cues consisted of black and white symbols printed on A3-sized paper. Visual cues were randomly chosen and kept constant for the 5-days of testing, and a different set of visual cues were used for post-2A treatment testing. Room lighting was set at 62-63% white light and light intensity recordings were taken by placing the luxmeter in the centre of the arena before the start of each session and kept between 60-70 lux.
The arena was set to rotate clockwise (1 rpm). The shock zone where a brief electric shock (500 ms, 0.5 mA, track-dependent) is delivered through the grid floor, is set at a 270° (pre-2A treatment) or 90° (post-2A treatment) angle and width of 60°. […] Mice were to actively avoid this shock zone while the arena rotates clockwise.
The position of the mouse in the arena was tracked using an overhead camera linked to Tracker software (Bio-Signal Group). When the centre-point of the mouse entered the shock zone, as tracked by the overhead camera linked to the tracking software, it received an electric shock. During the trials, the researcher sat quietly behind a curtain, out of view of the arena. After the completion of a trial, each mouse was returned to the home cage and the metal grid, clear Perspex boundary and underlying floor were cleaned with 70% ethanol. All scat and urine were removed following the completion of the trial.
Peptide of SEQ ID NO. 2 was dissolved in dimethyl sulfoxide (DMSO), and subsequently diluted in Dulbecco's phosphate-buffered saline (DPBS; 10% DMSO final). Pre-treatment open field/activity monitor data was used as the pseudorandomisation parameter for assigning animals to treatment groups. At 12-14 weeks, male and female 5×FAD and WT littermates were intranasally administered either 10% DMSO in DPBS as vehicle treatment or SEQ ID NO. 2 in DPBS (1 mg/kg). Treatment commenced immediately after the completion of pre-treatment behavioural testing and was administered every other day for 1 month. Body weight was measured every second day prior to intranasal dosing. […]

T1 sequence (Q9BYF1 18-805): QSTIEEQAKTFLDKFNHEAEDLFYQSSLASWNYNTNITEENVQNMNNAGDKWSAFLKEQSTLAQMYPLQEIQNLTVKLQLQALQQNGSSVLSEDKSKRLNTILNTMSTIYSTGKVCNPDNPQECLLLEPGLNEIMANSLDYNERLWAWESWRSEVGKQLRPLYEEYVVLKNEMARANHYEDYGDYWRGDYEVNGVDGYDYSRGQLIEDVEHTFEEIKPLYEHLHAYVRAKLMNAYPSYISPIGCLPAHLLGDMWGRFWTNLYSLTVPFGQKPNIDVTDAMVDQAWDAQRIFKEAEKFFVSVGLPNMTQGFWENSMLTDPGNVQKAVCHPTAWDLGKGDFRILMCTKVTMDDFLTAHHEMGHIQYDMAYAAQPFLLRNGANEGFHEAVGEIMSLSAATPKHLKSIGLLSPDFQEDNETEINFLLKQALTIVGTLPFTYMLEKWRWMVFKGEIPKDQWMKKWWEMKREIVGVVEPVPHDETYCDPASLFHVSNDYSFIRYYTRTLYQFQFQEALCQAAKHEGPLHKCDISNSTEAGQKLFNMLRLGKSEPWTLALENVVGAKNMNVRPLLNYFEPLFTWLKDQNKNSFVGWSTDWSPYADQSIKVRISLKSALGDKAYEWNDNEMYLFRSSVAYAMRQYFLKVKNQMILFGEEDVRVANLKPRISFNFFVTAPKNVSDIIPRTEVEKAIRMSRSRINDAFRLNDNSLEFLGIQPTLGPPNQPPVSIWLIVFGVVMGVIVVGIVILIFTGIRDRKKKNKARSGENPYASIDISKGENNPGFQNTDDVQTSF

## H-SLFELGKMIL-NH2 [SEQ ID NO:2, H2N-SLFELGKMIL-NH2]
ACE2
  production of Ang 1-7: 165±12 % of ACE2 alone
ACE2; 24 h
  ACE2-mediated breakdown of Ang II over 24 h, decrease in peak area: 83±5 % of initial
5×FAD transgenic mice; Tg mice, peptide versus vehicle
  active place avoidance behaviour, 5-day post-treatment performance: improved avoidance behavior
5×FAD transgenic mice; Tg mice, western blotting
  IL-6 protein level in the cortex compared to Tg mice treated with vehicle: reduction
  TNF-α protein level in the cortex compared to Tg mice treated with vehicle: reduction
5×FAD transgenic mice; WT or Tg mice treated with peptide
  number of shocks in the APA task at day 5 of testing, post-treatment versus pre-treatment: significantly more
5×FAD transgenic mice; between groups
  frequency of entry to the novel arm in y-maze test, as % of entries to all other arms, pre-treatment compared with post-treatment: did not show significant difference
  number of shocks received post-treatment: not significantly different
5×FAD transgenic mice; each group of mice, pre- versus post-treatment
  time in the centre in the open field/activity test: not significantly different
